Experimental data: patent US4259450A, “Antibiotic acanthomycin and process for preparing” (The Upjohn Company, priority 1977, dated 1981)

Tests used:
[1] = Solubilities; assay type: physicochemical
[2] = system: S. aureus; assay: standard tube assay for antibacterial activity, nutrient broth; assay type: cell-based, Staphylococcus aureus
Method: (§1) Acanthomycin was tested for antibacterial activity in a standard tube assay using nutrient broth as the medium. The minimum inhibitory concentration in mcg/ml against S. aureus was 50, and against S. lutea it was 25. Additional testing on a standard disc (12.7 mm) plate assay gave the following results: […]

[3] = system: S. lutea; assay: as above; assay type: cell-based, Sarcina lutea
Method: as §1

[4] = system: Bacillus cereus; assay: standard disc (12.7 mm) plate assay; assay type: cell-based
Method: (§2) Acanthomycin was tested for antibacterial activity in a standard tube assay using nutrient broth as the medium. The minimum inhibitory concentration in mcg/ml against S. aureus was 50, and against S. lutea it was 25. Additional testing on a standard disc (12.7 mm) plate assay gave the following results:
(§3) The fermentation can be monitored by a disc-plate assay using B. subtilis as the test organism and deionized H2 O as diluent. A unit volume (0.08 ml) of solution containing the substance to be assayed is placed on a 12.7 mm paper disc which is then placed on an agar plate seeded with the assay organism. The agar plate is then incubated for 16 to 18 hours at 32° to 37° C. A biounit (BU) is defined as the concentration of the antibiotic which gives a 20 mm zone of inhibition under the standard assay conditions. Thus, if for example a fermentation beer has to be diluted 1/100 to give a 20 mm zone of inhibition, the potency of such beer is 100 BU/ml.

[5] = system: Bacillus subtilis; assay: standard disc (12.7 mm) plate assay; assay type: cell-based
Method: as §2, §3

[6] = system: Sarcina lutea; assay: standard disc (12.7 mm) plate assay; assay type: cell-based
Method: as §2, §3

[7] = system: Staphylococcus aureus; assay: standard disc (12.7 mm) plate assay; assay type: cell-based
Method: as §2, §3

[8] = system: Streptococcus pyogenes; assay: standard disc (12.7 mm) plate assay; assay type: cell-based
Method: as §2, §3

[9] = system: S. pyogenese; assay: in vivo protection of S. pyogenes infected mice; conditions: administered subcutaneously
[10] = system: S. aureus; assay: in vivo protection of S. aureus infected mice
Method: Acanthomycin was also tested in vivo in standard laboratory mice. […] Against S. aureus infected mice the CD50 was 1.0 mg/kg.

[11] = free acid, slightly soluble, ca.

Substance: acanthomycin ammonium salt
- solubility in lower alcohols ([1]; salts (ammonium and sodium)): soluble
- solubility in water ([1]; salts (ammonium and sodium)): soluble

Substance: acanthomycin
- minimum inhibitory concentration [2]: 50 µg/mL
- minimum inhibitory concentration [3]: 25 µg/mL
- Zone ([4]; 0.31 mg/ml): 17 mm
- Zone ([4]; 0.62 mg/ml): 20 mm
- Zone ([4]; 1.25 mg/ml): 21 mm
- Zone ([4]; 2.5 mg/ml): 23 mm
- Zone ([4]; 5 mg/ml): 25 mm
- Zone ([4]; 10 mg/ml): 26 mm
- Zone ([5]; 0.31 mg/ml): 26 mm
- Zone ([5]; 0.62 mg/ml): 28 mm
- Zone ([5]; 1.25 mg/ml): 30 mm
- Zone ([5]; 2.5 mg/ml): 31.5 mm
- Zone ([5]; 5 mg/ml): 33 mm
- Zone ([5]; 10 mg/ml): 34 mm
- activity against B. subtilis ([5]; statement in words): active
- Zone ([6]; 0.31 mg/ml): 25 mm
- Zone ([6]; 0.62 mg/ml): 27 mm
- Zone ([6]; 1.25 mg/ml): 30 mm
- Zone ([6]; 2.5 mg/ml): 32 mm
- Zone ([6]; 5 mg/ml): 34 mm
- Zone ([6]; 10 mg/ml): 35 mm
- Zone ([7]; 0.31 mg/ml): 22.5 mm
- Zone ([7]; 0.62 mg/ml): 24.5 mm
- Zone ([7]; 1.25 mg/ml): 26.5 mm
- Zone ([7]; 2.5 mg/ml): 28 mm
- Zone ([7]; 5 mg/ml): 28.5 mm
- Zone ([7]; 10 mg/ml): 29.5 mm
- activity against S. aureus ([7]; statement in words): active
- Zone ([8]; 0.31 mg/ml): 34 mm
- Zone ([8]; 0.62 mg/ml): 36.5 mm
- Zone ([8]; 1.25 mg/ml): 38.5 mm
- Zone ([8]; 2.5 mg/ml): 40 mm
- Zone ([8]; 5 mg/ml): 40 mm
- Zone ([8]; 10 mg/ml): 41.5 mm
- CD50 [9]: 0.23 (0.17-0.31) mg/kg
- CD50 [10]: 1.0 mg/kg
- solubility in dimethylformamide ([1]; free acid): soluble
- solubility in dimethylsulfoxide ([1]; free acid): soluble
- solubility in ether ([1]; free acid): relatively insoluble
- solubility in halogenated hydrocarbon solvents ([1]; free acid): relatively insoluble
- solubility in saturated hydrocarbon solvents ([1]; free acid): relatively insoluble
- solubility in water ([1]; free acid): relatively insoluble
- solubility in ethanol [1, 11]: 1000 to 2000 µg/mL
- solubility in methanol [1, 11]: 1000 to 2000 µg/mL
